Measurements from patent US9814758B2, “Inhibitors of apoptosis and uses thereof” (CENTRE NATIONAL DE LA RECHERCHE SCIENTIFIQUE-CNRS, priority 2010, dated 2017).
No end group written: not given here.

Tested on: C57Bl6 mice, myocardial ischemia-reperfusion
Assay: Myocardial ischemia-reperfusion IR24h (40 min ischemia, 24 h reperfusion)
Type: in vivo, mouse
Settings: reperfusion prolonged from 1 hour to 24 hours
Experimental: FIG. 11: In vivo experimental protocol. C57Bl6 mice underwent a surgical protocol of myocardial ischemia-reperfusion (IR). The black box represents the period of ischemia to which the mice were submitted. Infarct size or cell death measurements were performed at the end of surgery for each protocol (indicated by ↑). IR60′: 40 minutes of Ischemia, 60 minutes of Reperfusion. IR24h: 40 minutes Ischemia and 24 hours Reperfusion.
FIG. 14: Cardioprotective effects of Tat-DAXXp (1 mg/kg-IV) in mice subjected to IR24h. Infarct size (in % of area at risk) and internucleosomal DNA fragmentation determined by ELISA were quantified in mice subjected to IR24H and treated with Tat, Tat-DAXXp or Tat-scrDAXXp (1 mg/kg) as well as with DAXXp (10 mg/kg) (IV injection 5 minutes before reperfusion). […]
FIG. 15: Dose response for Tat-DAXXp and DAXXp in mice subjected to IR24h. Area at risk and infarct size (in % of area at risk) were measured in mice subjected to IR24h and treated by Tat (1 mg/kg), Tat-DAXXp (0.1, 1 and 10 mg/kg) or DAXXp (0.1, 1 and 10 mg/kg) injected intravenously 5 minutes before reperfusion. […]
In a second step, the cardioprotective effects of DAXXp were evaluated in an in vivo model of myocardial ischemia-reperfusion. […]

Substance: GRKKRRQRRRPPQKKSRKEKKQTGSGPLG-NH2 [Tat-DAXXp, GRKKRRQRRRPPQ-KKSRKEKKQTGSGPLG-NH2]
- cardioprotective effects at prolonged reperfusion: maintained
